Assay [1] deals with Key Broadleaf Weed and Crop Species. Briefly: Post-Emergent Test II (Table 5). Format: in vivo. Particulars: post-emergence, 336 h; for pest or weed control at 70 g/ha: application rate 70 (kg ai/ha; footnote: g ai/ha); for pest or weed control at 140 g/ha: application rate 140 (kg ai/ha; footnote: g ai/ha). The method, then:
(§1) Seeds or nutlets of the desired test plant species were planted in Sun Gro Metro-Mix® 360 planting mixture, which typically has a pH of 6.0 to 6.8 and an organic matter content of about 30 percent, in plastic pots with a surface area of 64 square centimeters. When required to ensure good germination and healthy plants, a fungicide treatment and/or other chemical or physical treatment was applied. The plants were grown for 7-21 days in a greenhouse with an approximate 15 h photoperiod which was maintained at about 23-29° C. during the day and 22-28° C. during the night. Nutrients and water were added on a regular basis and supplemental lighting was provided with overhead metal halide 1000-Watt lamps as necessary. The plants were employed for testing when they reached the first or second true leaf stage.
(§2) A weighed amount, determined by the highest rate to be tested, of each test compound was placed in a 25 mL glass vial and was dissolved in 4 mL of a 97:3 v/v mixture of acetone and DMSO to obtain concentrated stock solutions. […] The concentrated stock solutions obtained were diluted with 20 mL of an aqueous mixture containing acetone, water, isopropyl alcohol, DMSO, Atplus 411F crop oil concentrate, and Triton® X-155 surfactant in a 48.5:39:10:1.5:1.0:0.02 v/v ratio to obtain spray solutions containing the highest application rates. Additional application rates were obtained by serial dilution of 12 mL of the high rate solution into a solution containing 2 mL of 97:3 v/v mixture of acetone and DMSO and 10 mL of an aqueous mixture containing acetone, water, isopropyl alcohol, DMSO, Atplus 411F crop oil concentrate, and Triton X-155 surfactant in a 48.5:39:10:1.5:1.0:0.02 v/v ratio to obtain ½×, ¼×, ⅛× and 1/16× rates of the high rate. Compound requirements are based upon a 12 mL application volume at a rate of 187 liters per hectare (L/ha). Formulated compounds were applied to the plant material with an overhead Mandel track sprayer equipped with 8002E nozzles calibrated to deliver 187 L/ha over an application area of 0.503 square meters at a spray height of 18 inches (43 cm) above the average plant canopy height. Control plants were sprayed in the same manner with the solvent blank.
(§3) The treated plants and control plants were placed in a greenhouse as described above and watered by subirrigation to prevent wash-off of the test compounds. After 14 days, the condition of the test plants as compared with that of the untreated plants was determined visually and scored on a scale of 0 to 100 percent where 0 corresponds to no injury and 100 corresponds to complete kill and presented as indicated in Table A. Some of the compounds tested, application rates employed, plant species tested, and results are given in Table 5.

Assay [2] relates to Key Grass and Sedge Weeds as well as Grass Crops. Briefly: Post-Emergent Test II (Table 6). The following applies: for Visual Growth Reduction (%) 14 Days After Application, CYPSS: CYPSS (CYPES: yellow nutsedge, Cyperus esculentus); for Visual Growth Reduction (%) 14 Days After Application, ECHSS: ECHSS (ECHCG: barnyardgrass, Echinochloa crus-galli); for Visual Growth Reduction (%) 14 Days After Application, ORYSS: ORYSS (ORYSA: rice, Oryza sativa); for Visual Growth Reduction (%) 14 Days After Application, ORYSS / Visual Growth Reduction (%) 14 Days After Application, TRZSS / Visual Growth Reduction (%) 14 Days After Application, ZEAMX: crop; for Visual Growth Reduction (%) 14 Days After Application, SORVU: SORVU: johnsongrass (Sorghum vulgare); for Visual Growth Reduction (%) 14 Days After Application, TRZSS: TRZSS (TRZAS: wheat, spring, Triticum aestivum); for pest or weed control at 140 g/ha: post-emergence, 336 h, 14 days after application. Format: in vivo. The method, then:
as §1, §2, §3

Where [3] appears, read: Abutilon theophrasti, ABUTH: velvetleaf (Abutilon theophrasti), read-out: Visual Growth Reduction (%) 14 Days After Application ABUTH.
Setting [4] is: Amaranthus retroflexus, AMARE: redroot pigweed (Amaranthus retroflexus), read-out: Visual Growth Reduction (%) 14 Days After Application AMARE.
The mark [5] stands for this setting: Brassica napus, BRSSS: oilseed rape, canola (Brassica napus), read-out: Visual Growth Reduction (%) 14 Days After Application BRSSS.
The mark [6] stands for this setting: Chenopodium album, CHEAL: lambsquarters (Chenopodium album), read-out: Visual Growth Reduction (%) 14 Days After Application CHEAL.
[7] abbreviates: Euphorbia heterophylla, EPHHL: wild poinsettia (Euphorbia heterophylla), read-out: Visual Growth Reduction (%) 14 Days After Application EPHHL.
Setting [8] is: Helianthus annuus, HELAN: sunflower (Helianthus annuus), read-out: Visual Growth Reduction (%) 14 Days After Application HELAN.
[9] abbreviates: Viola tricolor, VIOTR: wild pansy (Viola tricolor), read-out: Visual Growth Reduction (%) 14 Days After Application VIOTR.

Here are results for two compounds from patent publication US10765114B2, “4-amino-6-(pyridyl and 2-substitutedphenyl)-picolinates and 6-amino-2-(pyridyl and 2-substitutedphenyl)-pyrimidine-4-carboxylates and their use as herbicides” (Dow AgroSciences LLC, priority 2013, dated 2020).

Like-named read-outs stand apart in the source and are kept apart here.

For `Nc1c(F)c(-c2ccc(Cl)c(F)c2Cl)nc(C(=O)O)c1Cl` [Compound 16, 4-Amino-3-chloro-6-(2,4-dichloro-3-fluorophenyl)-5-fluoropicolinic acid], the pest or weed control at 70 g/ha in assay [1] (setting [3]) lay in the range of 85 to 94%; in assay [1] (setting [4]) it was 95 to 100%; in assay [1] (setting [5]), 95 to 100%; in assay [1] (setting [6]), 95 to 100%; in assay [1] (setting [7]), 85 to 94%; in assay [1] (setting [8]), 95 to 100%. Further, the pest or weed control at 70 g/ha in assay [1] (setting [9]) fell in the range of 95 to 100%. Besides, the pest or weed control at 140 g/ha in assay [1] (setting [3]), in assay [1] (setting [4]), in assay [1] (setting [5]), in assay [1] (setting [6]), in assay [1] (setting [7]) and in assay [1] (setting [8]) was 95 to 100% throughout. In addition, the pest or weed control at 140 g/ha in assay [1] (setting [9]) fell in the range of 95 to 100%. In addition, the “Visual Growth Reduction (%) 14 Days After Application, CYPSS” value is recorded as “A (95-100)” in assay [2] (70 g ai/ha) and “B (85-94)” in assay [2] (140 g ai/ha). The “Visual Growth Reduction (%) 14 Days After Application, DIGSA” value is given as “C (75-84)” in assay [2] (DIGSA: crabgrass (Digitaria sanguinalis), 70 g ai/ha) and “B (85-94)” in assay [2] (DIGSA: crabgrass (Digitaria sanguinalis), 140 g ai/ha). The “Visual Growth Reduction (%) 14 Days After Application, ECHSS” value in assay [2] (70 g ai/ha) is “B (85-94)”; in assay [2] (140 g ai/ha), “A (95-100)”. The “Visual Growth Reduction (%) 14 Days After Application, ORYSS” value was “F (30-44)” in assay [2] (70 g ai/ha) and “E (45-59)” in assay [2] (140 g ai/ha). In addition, the “Visual Growth Reduction (%) 14 Days After Application, SETFA” value is listed as “A (95-100)” in assay [2] (SETFA: giant foxtail (Setaria faberi), 70 g ai/ha) and “A (95-100)” in assay [2] (SETFA: giant foxtail (Setaria faberi), 140 g ai/ha). In addition, the “Visual Growth Reduction (%) 14 Days After Application, SORVU” value in assay [2] (70 g ai/ha) is recorded as “C (75-84)”; in assay [2] (140 g ai/ha), “B (85-94)”. The “Visual Growth Reduction (%) 14 Days After Application, TRZSS” value in assay [2] (70 g ai/ha) and in assay [2] (140 g ai/ha) was “B (85-94)” in each case. The “Visual Growth Reduction (%) 14 Days After Application, ZEAMX” value in assay [2] (ZEAMX: maize, corn (Zea mays), 70 g ai/ha) is on record as “B (85-94)”; in assay [2] (ZEAMX: maize, corn (Zea mays), 140 g ai/ha), “B (85-94)”.

As for `Nc1c(F)c(-c2ccc(C(F)(F)F)nc2F)nc(C(=O)O)c1Cl` [Compound 26], the pest or weed control at 140 g/ha in assay [1] (setting [3]) lay in the range of 0 to 29%; in assay [1] (setting [4]) it was 0 to 29%; in assay [1] (setting [5]), 0 to 29%; in assay [1] (setting [6]), 0 to 29%; in assay [1] (setting [7]), 0 to 29%; in assay [1] (setting [8]), 45 to 59%. The pest or weed control at 140 g/ha lay in the range of 0 to 29% in assay [1] (setting [9]); 0 to 29% in assay [2] (CYPSS, 140 g ai/ha, read-out: Visual Growth Reduction (%) 14 Days After Application CYPSS); 0 to 29% in assay [2] (DIGSA: crabgrass (Digitaria sanguinalis), 140 g ai/ha, read-out: Visual Growth Reduction (%) 14 Days After Application DIGSA); 0 to 29% in assay [2] (ECHSS, 140 g ai/ha, read-out: Visual Growth Reduction (%) 14 Days After Application ECHSS); 0 to 29% in assay [2] (ORYSS (crop), 140 g ai/ha, read-out: Visual Growth Reduction (%) 14 Days After Application ORYSS); 0 to 29% in assay [2] (SETFA: giant foxtail (Setaria faberi), 140 g ai/ha, read-out: Visual Growth Reduction (%) 14 Days After Application SETFA). Besides, the pest or weed control at 140 g/ha was 0 to 29% in assay [2] (SORVU: grain sorghum (Sorghum vulgare), 140 g ai/ha, read-out: Visual Growth Reduction (%) 14 Days After Application SORVU); 0 to 29% in assay [2] (TRZSS (crop), 140 g ai/ha, read-out: Visual Growth Reduction (%) 14 Days After Application TRZSS); 0 to 29% in assay [2] (ZEAMX: maize, corn (Zea mays), 140 g ai/ha, read-out: Visual Growth Reduction (%) 14 Days After Application ZEAMX).
